Experimental data published in ChEMBL document CHEMBL1165930, “The anticancer activity of 3- and 10-bromofascaplysins is mediated by caspase-8, -9, -3-dependent apoptosis” (Bioorg Med Chem, 2010).
Activity calls are given as the source filed them. The calls are words filed in the database; no cut-off is given here.

Legend:
[1] = tested on: HL-60; assay: Induction of apoptosis in human HL60 cells assessed as decrease in procaspase-9 level at 500 nM after 24 hrs by Western blot analysis; assay type: functional, cell-based
[2] = tested on: HL-60; assay: Induction of apoptosis in human HL60 cells assessed as decrease in procaspase-3 level at 500 nM after 24 hrs by Western blot analysis; assay type: functional, cell-based
[3] = tested on: HL-60; assay: Induction of apoptosis in human HL60 cells assessed as decrease in Bid protein level at 500 nM after 24 hrs by Western blot analysis; assay type: functional, cell-based
[4] = tested on: HL-60; assay: Induction of apoptosis in human HL60 cells assessed as decrease in procaspase-8 level at 250 nM after 24 hrs by Western blot analysis; assay type: functional, cell-based
[5] = tested on: HL-60; assay: Induction of apoptosis in human HL60 cells assessed as decrease in procaspase-9 level at 250 nM after 24 hrs by Western blot analysis; assay type: functional, cell-based
[6] = tested on: HL-60; assay: Induction of apoptosis in human HL60 cells assessed as decrease in procaspase-3 level at 250 nM after 24 hrs by Western blot analysis; assay type: functional, cell-based
[7] = tested on: HL-60; assay: Induction of apoptosis in human HL60 cells assessed as decrease in Bid protein level at 250 nM after 24 hrs by Western blot analysis; assay type: functional, cell-based
[8] = tested on: HL-60; assay: Induction of apoptosis in human HL60 cells assessed as decrease in PARP level at 250 nM after 24 hrs by Western blot analysis; assay type: functional, cell-based
[9] = tested on: HL-60; assay: Induction of apoptosis in human HL60 cells assessed as decrease in PARP level at 500 nM after 24 hrs by Western blot analysis; assay type: functional, cell-based
[10] = tested on: HL-60; assay: Induction of apoptosis in human HL60 cells assessed as change in mitochondrial permeability at 500 nM after 24 hrs by DiOC6 staining-based flow cytometry (RVb = 90.3%); assay type: functional
[11] = target: Cellular tumor antigen p53 (Mus musculus) (UniProt P02340); assay: Inhibition of p53-mediated transcriptional activity in mouse JB6 Cl41 cells at 125 to 500 nM by luciferase reporter gene assay; assay type: cell-based; settings: TDE = time-dependent effect
[12] = target: Cellular tumor antigen p53 (Mus musculus) (UniProt P02340); assay: Inhibition of p53-mediated transcriptional activity in mouse JB6 Cl41 cells after 24 hrs by luciferase reporter gene assay; assay type: cell-based; settings: TDE = time-dependent effect
[13] = Effect on proliferation of p53-expressing mouse JB6 Cl41 cells assessed as cell viability at 375 to 500 nM after 6 hrs; assay type: functional
[14] = target: Cellular tumor antigen p53 (Mus musculus) (UniProt P02340); assay: Inhibition of p53-mediated transcriptional activity in mouse JB6 Cl41 cells at 375 to 500 nM after 6 hrs by luciferase reporter gene assay relative to control; assay type: cell-based
[15] = target: Cellular tumor antigen p53 (Mus musculus) (UniProt P02340); assay: Inhibition of p53-mediated transcriptional activity in mouse JB6 Cl41 cells at 125 to 250 nM after 24 hrs by luciferase reporter gene assay relative to control; assay type: cell-based
[16] = target: Transcription factor Jun (Mus musculus) (UniProt P05627); assay: Induction of AP1-mediated transcriptional activity in mouse JB6 Cl41 cells at 15 to 500 nM by luciferase reporter gene assay; assay type: cell-based
[17] = target: Transcription factor Jun (Mus musculus) (UniProt P05627); assay: Induction of AP1-mediated transcriptional activity in mouse JB6 Cl41 cells after 24 hrs by luciferase reporter gene assay; assay type: cell-based
[18] = target: Transcription factor Jun (Mus musculus) (UniProt P05627); assay: Induction of AP1-mediated transcriptional activity in mouse JB6 Cl41 cells at 125 to 250 nM after 6 hrs by luciferase reporter gene assay relative to control; assay type: cell-based
[19] = target: Transcription factor Jun (Mus musculus) (UniProt P05627); assay: Induction of AP1-mediated transcriptional activity in mouse JB6 Cl41 cells at 125 to 250 nM after 24 hrs by luciferase reporter gene assay relative to control; assay type: cell-based
[20] = tested on: JB6 Cl41; assay: Effect on EGF-stimulated proliferation of mouse JB6 Cl41 cells at 125 nM after 22 hrs by MTS assay; assay type: functional, cell-based
[21] = tested on: JB6 Cl41; assay: Effect on EGF-stimulated proliferation of p38-expressing mouse JB6 Cl41 cells at 125 nM after 22 hrs by MTS assay; assay type: functional, cell-based
[22] = Effect on EGF-stimulated proliferation of JNK1-expressing mouse JB6 Cl41 cells assessed as cell viability at 125 nM after 22 hrs by MTS assay; assay type: functional; settings: JB6 Cl41, 22 h, read-out: Activity
[23] = Effect on EGF-stimulated proliferation of ERK2-expressing mouse JB6 Cl41 cells assessed as cell viability at 125 nM after 22 hrs by MTS assay; assay type: functional; settings: JB6 Cl41, 22 h, read-out: Activity
[24] = Effect on EGF-stimulated proliferation of JNK1-expressing mouse JB6 Cl41 cells assessed as cell death at 250 nM after 22 hrs by MTS assay; assay type: functional
[25] = Effect on EGF-stimulated proliferation of ERK2-expressing mouse JB6 Cl41 cells assessed as cell death at 250 nM after 22 hrs by MTS assay; assay type: functional
[26] = Effect on EGF-stimulated proliferation of mouse JB6 Cl41 cells assessed as cell viability at 250 nM after 22 hrs by MTS assay; assay type: functional; settings: JB6 Cl41, 22 h, read-out: Activity
[27] = Effect on EGF-stimulated proliferation of p38-expressing mouse JB6 Cl41 cells assessed as cell viability at 250 nM after 22 hrs by MTS assay; assay type: functional; settings: JB6 Cl41, 22 h, read-out: Activity
[28] = Selectivity ratio of INCC50 for mouse JB6 Cl41 cells to IC50 for mouse JB6 Cl41 cells; assay type: functional
[29] = tested on: HL-60; assay: Selectivity ratio of INCC50 for human HL60 cells to IC50 for human HL60 cells; assay type: functional
[30] = tested on: HeLa; assay: Selectivity ratio of INCC50 for human HeLa cells to IC50 for human HeLa cells; assay type: functional
[31] = tested on: SK-MEL-28; assay: Selectivity ratio of INCC50 for human SK-MEL-28 cells to IC50 for human SK-MEL-28 cells; assay type: functional
[32] = tested on: THP-1; assay: Selectivity ratio of INCC50 for human THP1 cells to IC50 for human THP1 cells; assay type: functional
[33] = tested on: JB6 Cl41; assay: Inhibition of EGF-stimulated neoplastic transformation of mouse JB6 Cl41 cells by anchorage-independent soft agar assay; assay type: functional, cell-based

Transcription factor Jun (Mus musculus), sequence (P05627 whole entry): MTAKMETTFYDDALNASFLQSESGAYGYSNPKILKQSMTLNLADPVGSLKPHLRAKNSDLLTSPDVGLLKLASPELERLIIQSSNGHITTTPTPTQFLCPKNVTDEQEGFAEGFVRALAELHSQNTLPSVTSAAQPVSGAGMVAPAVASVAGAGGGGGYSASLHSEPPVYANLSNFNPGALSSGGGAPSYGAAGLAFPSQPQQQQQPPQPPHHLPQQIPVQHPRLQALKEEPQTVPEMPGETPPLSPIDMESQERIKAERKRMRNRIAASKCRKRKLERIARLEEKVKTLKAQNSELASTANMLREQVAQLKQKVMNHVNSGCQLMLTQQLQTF
Cellular tumor antigen p53 (Mus musculus), sequence (P02340 whole entry): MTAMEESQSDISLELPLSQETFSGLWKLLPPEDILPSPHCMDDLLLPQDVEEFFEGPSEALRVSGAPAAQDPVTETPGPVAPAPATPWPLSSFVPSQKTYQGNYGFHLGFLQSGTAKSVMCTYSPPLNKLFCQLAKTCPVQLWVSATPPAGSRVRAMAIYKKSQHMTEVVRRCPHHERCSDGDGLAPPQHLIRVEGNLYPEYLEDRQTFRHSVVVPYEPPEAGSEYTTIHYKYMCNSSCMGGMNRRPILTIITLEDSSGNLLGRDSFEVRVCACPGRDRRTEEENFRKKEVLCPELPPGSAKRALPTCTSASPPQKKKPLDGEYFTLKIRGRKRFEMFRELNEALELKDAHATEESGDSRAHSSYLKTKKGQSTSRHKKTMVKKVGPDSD

For `O=C1c2ccc(Br)cc2-[n+]2ccc3c([nH]c4ccccc43)c21.[Cl-]`, the inhibition [1] was “Active”, the inhibition [2] was “Active” and the inhibition [3] was “Active”. The inhibition [4] was “Active”, the inhibition [5] was “Active” and the inhibition [6] was “Active”. The inhibition [7] was “Active”, the inhibition [8] was “Active” and the inhibition [9] was “Active”. The Activity [10] was 30.6%, the inhibition [11] was “tde” and the inhibition [12] was “tde”. The Activity [13] was 50%, the inhibition [14] was 30% and the inhibition [15] was 40%. The Activity [16] was “tde”, the Activity [17] was “Dose-dependent effect” and the fold change (FC) [18] was 2. For the same molecule, the fold change (FC) [19] was 1.5, the Activity [20] was “inactive” and the Activity [21] was “inactive”. For the same molecule, the viability at 0.125 µM [22] was 60%, the viability at 0.125 µM [23] was 30% and the Activity [24] was 100%. For the same molecule, the Activity [25] was 100%, the viability at 0.25 µM [26] was 60% and the viability at 0.25 µM [27] was 40%. The Selectivity ratio [28] was 2.7, the Selectivity ratio [29] was 5.3 and the Selectivity ratio [30] was 3.1. For the same molecule, the Selectivity ratio [31] was 4.8, the Selectivity ratio [32] was 8.7 and the inhibition [33] was “Dose-dependent effect”.
